Measured values: patent US20230135136A1, “FGFR TYROSINE KINASE INHIBITORS AND ANTI-PDI AGENTS FOR THE TREATMENT OF UROTHELIAL CARCINOMA” (Janssen Pharmaceutica NV, priority 2020, published 2023)
Read-outs that look alike come from different tables or passages of the source.

Columns and labels:
[1] = tested on: CD38+ T cells in the peripheral blood; assay: Phase 1b: flow cytometry immune cell profiling of blood, T cell activation (CD38+ T cells vs C1D1 baseline); format: in vivo, human; settings: E8RJ cohort, at C1D15, erdafitinib treatment alone; FIG. 4C
Excerpt: Phase 1b is the dose escalation part of the study wherein two dosing cohorts (Standard Cohorts and Alternative Cohorts) of erdafitinib were explored, while cetrelimab intravenous (IV) dose was fixed. In the Standard Cohorts (DL1, DL2 or DL2A), erdafitinib and cetrelimab start concurrently from Cycle 1 Day 1 (C1D1). In the Alternative Cohorts (DL1B or DL2B), administration of erdafitinib starts on C1D1 but cetrelimab is initiated 1 cycle (4 weeks) later, on Cycle 2 Day 1 (C2D1) (also referred to as a 28-day run-in of erdafitinib).
For phase 1b, blood for immune cell profiling were collected at four time points (C1D1, C1D15, C2D1 and C3D1). […] Blood samples were subjected to flow cytometry analysis on a real time basis. T cell activation is quantified as fold increase in the proportions of 1) CD38+CD3, CD38+CD4, or CD38+CD8 T cells out of lymphocytes or CD3 T cell populations, and 2) CD38+ cells out of CD4+ or CD8+ T cell populations, compared to the baseline proportion levels at C1D1.
(§1) Longitudinal blood samples were analyzed from DL2A (E8J cohort: Erda 8 mg+cetrelimab 240 mg), DL2B (E8RJ cohort: Erda 8 mg 28 days run-in +cetrelimab 240 mg), and DL2 (EJ cohort: Erda 8 mg with the potential dose adjustments to 9 mg depending on phosphate levels measured on C1D15+cetrelimab 240 mg) of phase 1b, and blood samples from Arm A and Arm B of phase 2.

[2] = tested on: CD38+ T cells in the peripheral blood; settings: Arm A, erdafitinib monotherapy, FIG. 7c
Description: In Phase 2, two dosing arms are explored: the erdafitinib monotherapy treatment at the starting oral dose of 8 mg (Arm A), or the combination treatment of erdafitinib and cetrelimab (Arm B).
For phase 1b, blood for immune cell profiling were collected at four time points (C1D1, C1D15, C2D1 and C3D1). For phase 2, blood was collected at six time points (C1D1, C1D15, C2D1, C2D15, C3D1 and C3D15). Blood samples were subjected to flow cytometry analysis on a real time basis. T cell activation is quantified as fold increase in the proportions of 1) CD38+CD3, CD38+CD4, or CD38+CD8 T cells out of lymphocytes or CD3 T cell populations, and 2) CD38+ cells out of CD4+ or CD8+ T cell populations, compared to the baseline proportion levels at C1D1.
as §1

With `COc1cc(OC)cc(N(CCNC(C)C)c2ccc3ncc(-c4cnn(C)c4)nc3c2)c1` [erdafitinib, N-(3,5-dimethoxyphenyl)-N′-(1-methylethyl)-N-[3-(1-methyl-1H-pyrazol-4-yl)quinoxalin-6-yl]ethane-1,2-diamine] the “proportion of CD38+CD8 T cells” value [1] was “dramatically increased”, the “extent of increase of proportion of CD38+CD8 T cells” value ([2]; compared with Arm B) was “less than that observed in Arm B” and the “proportion of CD38+CD8 T cells” value [2] was “increased with time”.
